In one assay the target is T1, human recombinant HDAC1 (Homo sapiens, UniProt Q13547).
T1 construct: purchased Enzo Life Science, Inc. BML-SE456
Nature of the assay: HDAC1 enzyme activity inhibition (HDAC Fluorimetric Drug Discovery Kit). The assay is classed as biochemical. To be noted: human recombinant HDAC1; IC50 calculated with GraphPad Prism; read-out: HDAC1. Put shortly: (§1)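 Fluorimetric deacetylase read-out: after 30 min with Developer II following a 60 min, 30° C reaction of recombinant enzyme ([…]) with 10 μM substrate, across five-fold serial compound dilutions.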

Another assay has as its target T2, human recombinant HDAC6 (Homo sapiens, UniProt Q9UBN7).
T2 construct: purchased Calbiochem Inc. 382180
T2 sequence (Q9UBN7 1-1215): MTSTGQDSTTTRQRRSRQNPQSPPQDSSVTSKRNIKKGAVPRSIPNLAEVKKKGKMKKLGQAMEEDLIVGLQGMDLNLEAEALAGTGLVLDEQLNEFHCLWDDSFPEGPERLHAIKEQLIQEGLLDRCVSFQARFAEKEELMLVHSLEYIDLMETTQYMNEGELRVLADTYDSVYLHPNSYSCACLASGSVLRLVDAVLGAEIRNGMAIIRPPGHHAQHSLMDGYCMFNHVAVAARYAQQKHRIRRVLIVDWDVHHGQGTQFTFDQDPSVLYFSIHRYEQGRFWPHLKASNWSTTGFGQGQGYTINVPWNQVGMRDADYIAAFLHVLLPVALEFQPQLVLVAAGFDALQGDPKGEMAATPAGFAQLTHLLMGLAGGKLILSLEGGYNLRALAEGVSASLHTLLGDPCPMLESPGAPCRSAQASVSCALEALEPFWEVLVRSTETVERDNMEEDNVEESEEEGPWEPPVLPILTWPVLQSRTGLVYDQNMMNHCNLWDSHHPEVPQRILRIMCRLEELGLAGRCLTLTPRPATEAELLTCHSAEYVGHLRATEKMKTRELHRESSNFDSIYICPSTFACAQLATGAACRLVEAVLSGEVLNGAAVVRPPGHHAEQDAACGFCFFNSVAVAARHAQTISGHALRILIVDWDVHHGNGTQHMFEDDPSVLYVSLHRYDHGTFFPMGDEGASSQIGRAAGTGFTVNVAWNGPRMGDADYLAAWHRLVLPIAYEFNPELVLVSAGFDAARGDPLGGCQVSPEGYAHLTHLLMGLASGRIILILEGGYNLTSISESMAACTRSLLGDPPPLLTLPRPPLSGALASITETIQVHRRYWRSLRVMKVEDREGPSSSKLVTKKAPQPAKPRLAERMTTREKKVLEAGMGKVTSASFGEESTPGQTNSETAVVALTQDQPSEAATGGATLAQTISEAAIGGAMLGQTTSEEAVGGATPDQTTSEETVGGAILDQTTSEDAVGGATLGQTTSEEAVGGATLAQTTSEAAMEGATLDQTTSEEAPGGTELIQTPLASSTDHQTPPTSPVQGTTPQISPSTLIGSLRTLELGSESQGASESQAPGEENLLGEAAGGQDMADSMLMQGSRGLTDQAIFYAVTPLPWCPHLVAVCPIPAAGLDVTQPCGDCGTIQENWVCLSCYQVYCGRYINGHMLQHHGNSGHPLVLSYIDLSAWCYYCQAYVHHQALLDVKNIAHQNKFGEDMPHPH
The assay can be described thus: HDAC6 enzyme activity inhibition (HDAC Fluorimetric Drug Discovery Kit). Type of assay: biochemical. To be noted: for HDAC6 selectivity (fold): HDAC1 IC50 / HDAC6 IC50; for IC50: human recombinant HDAC6, IC50 calculated with GraphPad Prism. Put shortly: as §1

The subject of assay [1] is hippocampal neurons from a Sprague-Dawley (SD) rat fetus. Nature of the assay: Effect of HDAC6-specific inhibitor on axonal transport of mitochondria in amyloid-beta treated neurons. The assay is classed as cell-based. To be noted: transport velocity of mitochondria in neuronal axon after normalization; vehicle = 100%, amyloid beta treatment group = 0%; compound treatment for three hours. The protocol:
On the 17th to 18th days (E17-18) of insemination, the hippocampal neurons from a Sprague-Dawley (SD) rat fetus were cultured in a culture container for imaging, which had been coated with extracellular matrix, and were treated with amyloid-beta protein fragments at a concentration of […]. In 24 hours later, the neurons were treated with the compound on the 8th day of in vitro culture. In three hours later, the resulting neurons were treated with MitoTracker Red CMXRos (Life Technologies, NY, USA) for last five minutes to stain mitochondria. An image on the axonal transport of stained neuron mitochondria was taken with a confocal microscope (Leica SP8; Leica microsystems, UK) at an interval of one second for one minute to measure a transport velocity of each mitochondria per second with an IMARIS analysis program (BITPLANE, Zurich, Switzerland).
In result, after setting a section, in which the group treated with amyloid-beta had shown a significant decrease in the transport velocity of mitochondria compared to a vehicle, it was confirmed for 1,3,4-oxadiazole triazol derivative compounds of the present invention, stereoisomers thereof or pharmaceutically acceptable salts thereof that the vehicles is represented as 100%, the amyloid beta treatment group is represented as 0%, a velocity distribution of the compound after normalization is represented as *, 0%˜50%; **, 50%˜100%; ***, >100%.

Here are results for 15 compounds from patent publication US20230257372A1 (CHONG KUN DANG PHARMACEUTICAL CORP., priority 2020, published 2023).

A value given as a limit tells only on which side of the number the result lay.

T1 sequence (Q13547 whole entry): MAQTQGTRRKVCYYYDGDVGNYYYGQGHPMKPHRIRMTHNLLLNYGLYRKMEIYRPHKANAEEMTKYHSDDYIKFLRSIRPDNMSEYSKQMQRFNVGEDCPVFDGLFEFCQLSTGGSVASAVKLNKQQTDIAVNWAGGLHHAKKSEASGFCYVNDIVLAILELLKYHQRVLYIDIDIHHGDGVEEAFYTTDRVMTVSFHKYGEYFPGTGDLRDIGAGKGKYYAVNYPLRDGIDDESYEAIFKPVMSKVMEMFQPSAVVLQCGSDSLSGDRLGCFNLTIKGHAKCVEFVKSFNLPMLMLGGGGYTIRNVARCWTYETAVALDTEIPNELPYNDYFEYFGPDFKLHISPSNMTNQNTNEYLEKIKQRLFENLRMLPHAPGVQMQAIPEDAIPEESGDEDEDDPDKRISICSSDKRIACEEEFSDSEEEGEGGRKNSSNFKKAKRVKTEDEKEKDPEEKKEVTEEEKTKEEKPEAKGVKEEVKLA

Take `O=C(Nc1cccc(-c2cn(Cc3ccc(-c4nnc(C(F)F)o4)cc3F)nn2)c1)C(F)(F)F` [Compound 3777, N-(3-(1-(4-(5-(difluoromethyl)-1,3,4-oxadiazol-2-yl)-2-fluorobenzyl)-1H-1,2,3-triazol-4-yl)phenyl)-2,2,2-trifluoroacetamide]: the values for the IC50 at human recombinant HDAC1 and at human recombinant HDAC6 were more than 50000 nM and 22.5 nM, respectively. Also, the “HDAC6 selectivity (fold)” value on human recombinant HDAC6 was 2222 fold. Further, in assay [1], the “Velocity distribution (%)” value is recorded as “* (*, 0%˜50%)”.
For the compound `CC(C)(C)C(=O)Nc1cccc(-c2cn(Cc3ccc(-c4nnc(C(F)F)o4)cn3)nn2)c1` [Compound 3825, N-(3-(1-((5-(5-(difluoromethyl)-1,3,4-oxadiazol-2-yl)pyridin-2-yl)methyl)-1H-1,2,3-triazol-4-yl)phenyl)pivalamide], the results for the IC50 at human recombinant HDAC1 and at human recombinant HDAC6 were more than 50000 nM and 11.2 nM, respectively. Besides, on human recombinant HDAC6, the “HDAC6 selectivity (fold)” value worked out at 4464 fold. Also, the “Velocity distribution (%)” value in assay [1] is listed as “*** (***, >100%)”.
With `CCOC(=O)Nc1cccc(-c2cn(Cc3ccc(-c4nnc(C(F)F)o4)cn3)nn2)c1` [Compound 3826], at human recombinant HDAC1, the IC50 is more than 50000 nM. Besides, at human recombinant HDAC6, the “HDAC6 selectivity (fold)” value amounted to 4132 fold and the IC50 is 12.1 nM. Also, the “Velocity distribution (%)” value in assay [1] is on record as “* (*, 0%˜50%)”.
With `FC(F)c1nnc(-c2ccc(Cn3cc(-c4cccc(NC5CCOCC5)c4)nn3)nc2)o1` [Compound 3827, N-(3-(1-((5-(5-(difluoromethyl)-1,3,4-oxadiazol-2-yl)pyridin-2-yl)methyl)-1H-1,2,3-triazol-4-yl)phenyl)tetrahydro-2H-pyran-4-amine], at human recombinant HDAC1, the IC50 was more than 50000 nM. Moreover, at human recombinant HDAC6, the “HDAC6 selectivity (fold)” value turned out to be 2487 fold and the IC50 is 20.1 nM. The “Velocity distribution (%)” value in assay [1] was “*** (***, >100%)”.
Take `FC(F)c1nnc(-c2ccc(Cn3cc(-c4cccc(NC5CCCCC5)c4)nn3)nc2)o1` [Compound 3828, N-cyclohexyl-3-(1-((5-(5-(difluoromethyl)-1,3,4-oxadiazol-2-yl)pyridin-2-yl)methyl)-1H-1,2,3-triazol-4-yl)aniline]: the IC50 on human recombinant HDAC1 is more than 50000 nM. Further, at human recombinant HDAC6, the “HDAC6 selectivity (fold)” value was 1196 fold and the IC50 is 41.8 nM. In assay [1], the “Velocity distribution (%)” value is on record as “* (*, 0%˜50%)”.
Regarding `FC(F)c1nnc(-c2ccc(Cn3cc(-c4ccc5cc[nH]c5c4)nn3)nc2)o1` [Compound 3838, 2-(6-((4-(1H-indol-6-yl)-1H-1,2,3-triazol-1-yl)methyl)pyridin-3-yl)-5-(difluoromethyl)-1,3,4-oxadiazole], the IC50 is more than 50000 nM on human recombinant HDAC1 and 7 nM on human recombinant HDAC6. Besides, at human recombinant HDAC6, the “HDAC6 selectivity (fold)” value came to 7142 fold. In addition, the “Velocity distribution (%)” value in assay [1] was “* (*, 0%˜50%)”.
`FC(F)c1nnc(-c2ccc(Cn3cc(-c4cccc5[nH]ccc45)nn3)nc2)o1` [Compound 3839, 2-(6-((4-(1H-indol-4-yl)-1H-1,2,3-triazol-1-yl)methyl)pyridin-3-yl)-5-(difluoromethyl)-1,3,4-oxadiazole]: the figures for the IC50 on human recombinant HDAC1 and on human recombinant HDAC6 were more than 50000 nM and 7.4 nM, respectively. Besides, the “HDAC6 selectivity (fold)” value at human recombinant HDAC6 came to 6756 fold. The “Velocity distribution (%)” value in assay [1] is listed as “* (*, 0%˜50%)”.
Consider `FC(F)c1nnc(-c2ccc(Cn3cc(-c4ccnc5[nH]ccc45)nn3)nc2)o1` [Compound 3840, 2-(6-((4-(1H-pyrrolo[2,3-b]pyridin-4-yl)-1H-1,2,3-triazol-1-yl)methyl)pyridin-3-yl)-5-(difluoromethyl)-1,3,4-oxadiazole], for which the IC50 on human recombinant HDAC1 was more than 50000 nM. Besides, on human recombinant HDAC6, the “HDAC6 selectivity (fold)” value was determined as 5681 fold and the IC50 was 8.8 nM. In assay [1], the “Velocity distribution (%)” value was “** (**, 50%˜100%)”.
As for `FC(F)c1nnc(-c2ccc(Cn3cc(-c4cnc5[nH]ccc5c4)nn3)nc2)o1` [Compound 3841, 2-(6-((4-(1H-pyrrolo[2,3-b]pyridin-5-yl)-1H-1,2,3-triazol-1-yl)methyl)pyridin-3-yl)-5-(difluoromethyl)-1,3,4-oxadiazole], on human recombinant HDAC1, the IC50 is more than 50000 nM. On human recombinant HDAC6, the “HDAC6 selectivity (fold)” value amounted to 5952 fold and the IC50 is 8.4 nM. For the same compound, the “Velocity distribution (%)” value in assay [1] was “*** (***, >100%)”.
With `Cn1ncc2c(-c3cn(Cc4ccc(-c5nnc(C(F)F)o5)cn4)nn3)cccc21` [Compound 3842, 2-(difluoromethyl)-5-(6-((4-(1-methyl-1H-indazol-4-yl)-1H-1,2,3-triazol-1-yl)methyl)pyridin-3-yl)-1,3,4-oxadiazole], the IC50 on human recombinant HDAC1 was more than 50000 nM. Further, on human recombinant HDAC6, the “HDAC6 selectivity (fold)” value worked out at 2032 fold and the IC50 is 24.6 nM. For the same compound, the “Velocity distribution (%)” value in assay [1] is on record as “** (**, 50%˜100%)”.
Turning to `Fc1ccccc1-c1cn(Cc2ccc(-c3nnc(C(F)F)o3)cn2)nn1` [Compound 3853, 2-(difluoromethyl)-5-(6-((4-(2-fluorophenyl)-1H-1,2,3-triazol-1-yl)methyl)pyridin-3-yl)-1,3,4-oxadiazole], the IC50 on human recombinant HDAC1 was more than 50000 nM; at human recombinant HDAC6 it was 31 nM. The “HDAC6 selectivity (fold)” value at human recombinant HDAC6 came to 1612 fold. Further, the “Velocity distribution (%)” value in assay [1] is reported as “** (**, 50%˜100%)”.
For the compound `Fc1cccc(-c2cn(Cc3ccc(-c4nnc(C(F)F)o4)cn3)nn2)c1` [Compound 3854, 2-(difluoromethyl)-5-(6-((4-(3-fluorophenyl)-1H-1,2,3-triazol-1-yl)methyl)pyridin-3-yl)-1,3,4-oxadiazole], the IC50 at human recombinant HDAC1 is more than 50000 nM. Also, on human recombinant HDAC6, the “HDAC6 selectivity (fold)” value amounted to 1259 fold and the IC50 was 39.7 nM. Further, in assay [1], the “Velocity distribution (%)” value is recorded as “*** (***, >100%)”.
As for `Cc1cccc(-c2cn(Cc3ccc(-c4nnc(C(F)F)o4)cn3)nn2)c1` [Compound 3856, 2-(difluoromethyl)-5-(6-((4-(m-tolyl)-1H-1,2,3-triazol-1-yl)methyl)pyridin-3-yl)-1,3,4-oxadiazole], at human recombinant HDAC1, the IC50 is more than 50000 nM. At human recombinant HDAC6, the “HDAC6 selectivity (fold)” value is 1506 fold and the IC50 is 33.2 nM. In addition, the “Velocity distribution (%)” value in assay [1] was “*** (***, >100%)”.
In the case of `FC(F)c1nnc(-c2ccc(Cn3cc(-c4cccc(N5CCOCC5)c4)nn3)nc2)o1` [Compound 3866, 4-(3-(1-((5-(5-(difluoromethyl)-1,3,4-oxadiazol-2-yl)pyridin-2-yl)methyl)-1H-1,2,3-triazol-4-yl)phenyl)morpholin], the IC50 on human recombinant HDAC1 was more than 50000 nM. Besides, on human recombinant HDAC6, the “HDAC6 selectivity (fold)” value turned out to be 2688 fold and the IC50 was 18.6 nM. The “Velocity distribution (%)” value in assay [1] is “** (**, 50%˜100%)”.
With `CN1CCN(c2cccc(-c3cn(Cc4ccc(-c5nnc(C(F)F)o5)cn4)nn3)c2)CC1` [Compound 3867, 2-(difluoromethyl)-5-(6-((4-(3-(4-methylpiperazin-1-yl)phenyl)-1H-1,2,3-triazol-1-yl)methyl)pyridin-3-yl)-1,3,4-oxadiazole], the IC50 on human recombinant HDAC1 was more than 50000 nM. Moreover, at human recombinant HDAC6, the “HDAC6 selectivity (fold)” value was found to be 1953 fold and the IC50 was 25.6 nM. Also, the “Velocity distribution (%)” value in assay [1] is listed as “** (**, 50%˜100%)”.
